Assay results: patent US9302988B2, “Fluoromethyl-substituted pyrrole carboxamides” (GRÜNENTHAL GMBH, priority 2012, dated 2016)

These compounds were tested against T1, Human CaV2.2 channels (Homo sapiens, UniProt Q00975) (assay: Fluorescent assay for CaV2.2 channels using potassium depolarization to induce channel opening (FLIPR, Fluo-4)). Conditions: 3 μM test compound, 30 mM KCl, HEK293 cells stably expressing human CaV2.2; read-out: %-Inhib (CaV2.2) @3 μM @30 mM KCl.
T1 construct: expressed in transfected cells
T1 sequence (Q00975 whole entry): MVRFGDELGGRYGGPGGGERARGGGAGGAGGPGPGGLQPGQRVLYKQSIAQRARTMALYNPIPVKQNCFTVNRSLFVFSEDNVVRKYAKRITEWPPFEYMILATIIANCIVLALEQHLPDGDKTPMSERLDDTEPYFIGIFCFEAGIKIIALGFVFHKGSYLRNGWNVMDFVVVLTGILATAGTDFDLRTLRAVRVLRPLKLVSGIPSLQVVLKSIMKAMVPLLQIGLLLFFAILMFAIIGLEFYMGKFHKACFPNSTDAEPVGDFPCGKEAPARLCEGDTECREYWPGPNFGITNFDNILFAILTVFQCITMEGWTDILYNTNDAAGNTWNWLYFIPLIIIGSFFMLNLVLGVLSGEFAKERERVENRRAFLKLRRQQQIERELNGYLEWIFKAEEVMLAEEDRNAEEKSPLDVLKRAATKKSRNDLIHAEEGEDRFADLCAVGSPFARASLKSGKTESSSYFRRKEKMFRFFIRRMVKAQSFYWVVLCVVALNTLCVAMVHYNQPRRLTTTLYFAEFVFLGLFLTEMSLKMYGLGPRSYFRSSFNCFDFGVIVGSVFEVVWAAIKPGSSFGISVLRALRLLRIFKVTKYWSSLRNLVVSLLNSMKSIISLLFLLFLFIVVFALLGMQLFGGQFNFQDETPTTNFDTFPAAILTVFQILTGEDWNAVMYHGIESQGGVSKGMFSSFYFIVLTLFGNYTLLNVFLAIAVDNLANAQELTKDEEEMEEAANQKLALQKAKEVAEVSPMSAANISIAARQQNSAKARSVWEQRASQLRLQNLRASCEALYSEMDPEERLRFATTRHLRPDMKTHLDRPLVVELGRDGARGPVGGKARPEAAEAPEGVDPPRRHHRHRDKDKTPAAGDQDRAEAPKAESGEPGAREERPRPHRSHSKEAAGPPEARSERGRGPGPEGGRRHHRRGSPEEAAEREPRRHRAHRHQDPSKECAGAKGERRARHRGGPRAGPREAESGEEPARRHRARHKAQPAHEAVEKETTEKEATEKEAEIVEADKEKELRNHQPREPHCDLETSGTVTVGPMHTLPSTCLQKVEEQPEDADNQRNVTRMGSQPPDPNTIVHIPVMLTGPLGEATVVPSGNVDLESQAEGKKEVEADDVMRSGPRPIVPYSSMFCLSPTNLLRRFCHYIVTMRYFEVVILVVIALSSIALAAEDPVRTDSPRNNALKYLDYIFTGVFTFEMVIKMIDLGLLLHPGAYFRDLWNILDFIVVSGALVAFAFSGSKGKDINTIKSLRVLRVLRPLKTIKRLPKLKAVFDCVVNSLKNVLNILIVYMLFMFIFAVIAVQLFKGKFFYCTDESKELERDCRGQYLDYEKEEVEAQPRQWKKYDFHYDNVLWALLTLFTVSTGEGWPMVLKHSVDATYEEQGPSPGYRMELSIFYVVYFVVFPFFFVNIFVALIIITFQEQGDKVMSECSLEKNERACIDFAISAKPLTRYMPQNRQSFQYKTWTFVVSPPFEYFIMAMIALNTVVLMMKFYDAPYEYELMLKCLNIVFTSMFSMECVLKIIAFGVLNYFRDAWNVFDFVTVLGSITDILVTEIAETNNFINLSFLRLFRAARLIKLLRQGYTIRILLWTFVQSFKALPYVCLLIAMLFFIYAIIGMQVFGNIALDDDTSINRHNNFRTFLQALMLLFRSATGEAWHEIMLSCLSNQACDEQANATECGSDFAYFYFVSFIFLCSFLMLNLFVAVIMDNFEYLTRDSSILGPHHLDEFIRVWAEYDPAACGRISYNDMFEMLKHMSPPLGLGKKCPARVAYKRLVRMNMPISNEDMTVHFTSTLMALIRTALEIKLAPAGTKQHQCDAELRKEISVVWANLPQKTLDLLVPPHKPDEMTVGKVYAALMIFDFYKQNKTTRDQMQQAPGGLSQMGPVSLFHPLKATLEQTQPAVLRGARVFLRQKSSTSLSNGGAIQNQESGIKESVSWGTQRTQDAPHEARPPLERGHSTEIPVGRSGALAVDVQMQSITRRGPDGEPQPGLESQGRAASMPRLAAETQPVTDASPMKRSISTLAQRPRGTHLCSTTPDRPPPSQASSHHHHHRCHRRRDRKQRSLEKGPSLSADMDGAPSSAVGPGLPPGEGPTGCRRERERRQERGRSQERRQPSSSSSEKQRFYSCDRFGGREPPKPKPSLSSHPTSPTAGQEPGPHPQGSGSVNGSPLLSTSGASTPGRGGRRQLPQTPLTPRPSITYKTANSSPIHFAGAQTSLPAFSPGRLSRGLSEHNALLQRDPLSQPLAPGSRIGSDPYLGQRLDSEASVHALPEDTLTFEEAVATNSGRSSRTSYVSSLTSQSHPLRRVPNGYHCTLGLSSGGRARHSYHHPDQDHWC
T1 sequence (P54289 25-1103, further chain): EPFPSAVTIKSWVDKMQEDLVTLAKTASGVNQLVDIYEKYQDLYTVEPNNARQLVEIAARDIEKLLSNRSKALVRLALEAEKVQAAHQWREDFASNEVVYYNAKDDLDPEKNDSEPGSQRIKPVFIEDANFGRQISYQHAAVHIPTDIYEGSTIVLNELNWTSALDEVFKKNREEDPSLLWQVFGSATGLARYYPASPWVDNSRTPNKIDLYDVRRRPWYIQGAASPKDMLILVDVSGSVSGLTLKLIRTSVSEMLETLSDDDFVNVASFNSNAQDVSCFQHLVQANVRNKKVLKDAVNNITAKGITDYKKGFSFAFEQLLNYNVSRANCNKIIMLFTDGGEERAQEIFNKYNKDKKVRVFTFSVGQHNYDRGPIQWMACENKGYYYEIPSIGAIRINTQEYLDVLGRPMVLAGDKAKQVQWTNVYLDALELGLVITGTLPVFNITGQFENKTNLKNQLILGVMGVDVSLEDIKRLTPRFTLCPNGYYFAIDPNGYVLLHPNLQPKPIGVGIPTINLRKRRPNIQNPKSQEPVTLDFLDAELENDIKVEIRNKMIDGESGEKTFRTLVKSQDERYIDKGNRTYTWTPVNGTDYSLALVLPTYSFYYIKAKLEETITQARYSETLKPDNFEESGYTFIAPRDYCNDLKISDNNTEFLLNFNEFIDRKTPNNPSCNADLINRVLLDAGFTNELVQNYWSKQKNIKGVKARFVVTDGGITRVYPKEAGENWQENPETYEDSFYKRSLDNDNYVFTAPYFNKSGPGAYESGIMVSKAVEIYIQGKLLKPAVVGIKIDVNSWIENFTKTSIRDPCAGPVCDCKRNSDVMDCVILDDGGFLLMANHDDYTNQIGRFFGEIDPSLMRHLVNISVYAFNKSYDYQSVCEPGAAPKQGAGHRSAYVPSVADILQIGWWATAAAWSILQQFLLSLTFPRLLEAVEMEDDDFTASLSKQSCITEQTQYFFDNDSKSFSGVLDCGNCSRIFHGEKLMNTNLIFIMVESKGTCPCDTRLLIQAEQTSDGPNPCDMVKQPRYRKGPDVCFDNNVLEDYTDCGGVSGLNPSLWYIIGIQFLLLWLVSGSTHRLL
T1 sequence (P54284 whole entry, further chain): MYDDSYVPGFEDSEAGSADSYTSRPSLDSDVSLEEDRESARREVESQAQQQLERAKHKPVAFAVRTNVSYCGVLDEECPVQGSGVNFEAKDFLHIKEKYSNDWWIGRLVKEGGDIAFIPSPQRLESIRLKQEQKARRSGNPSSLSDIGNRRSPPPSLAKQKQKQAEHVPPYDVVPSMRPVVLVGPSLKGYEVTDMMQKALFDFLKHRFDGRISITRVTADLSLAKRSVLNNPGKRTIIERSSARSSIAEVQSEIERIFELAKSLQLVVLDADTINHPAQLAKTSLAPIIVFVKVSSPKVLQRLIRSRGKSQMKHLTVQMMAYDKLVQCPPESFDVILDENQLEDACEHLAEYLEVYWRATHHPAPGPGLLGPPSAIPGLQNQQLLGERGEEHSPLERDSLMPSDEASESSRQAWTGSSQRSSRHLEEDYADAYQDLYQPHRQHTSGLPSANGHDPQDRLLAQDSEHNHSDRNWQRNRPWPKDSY
Type: cell-based
Summary of the method: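 HEK293 cells stably co-expressing CaV2.2 with α2δ and β subunits plus Kir2.3 were Fluo-4 loaded, then preincubated 15 min at 25 °C with compound in 30 mM KCl buffer, pH 7.4. Depolarization was by adding buffer containing 210 mM KCl. Inhibition was taken from baseline-normalized peak fluorescence amplitude (ex 480/em 535 nm).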

| SMILES | inhibition at 3 µM |
| --- | --- |
| Cc1cc(CN(C)C(=O)c2c(-c3ccc(Cl)cc3)cc(C(F)(F)F)n2Cc2ccccc2)no1 [SC-205, 1-Benzyl-3-(4-chlorophenyl)-N-methyl-N-[(5-methyl-isoxazol-3-yl)-methyl]-5-(trifluoromethyl)-1H-pyrrole-2-carboxylic acid amide] | > 95% |
| Cc1nnc(CN(C)C(=O)c2c(-c3ccc(Cl)cc3)cc(C(F)(F)F)n2Cc2ccccc2)o1 [SC-206, 1-Benzyl-3-(4-chlorophenyl)-N-methyl-N-[(5-methyl-[1,3,4]oxadiazol-2-yl)-methyl]-5-(trifluoromethyl)-1H-pyrrole-2-carboxylic acid amide] | 75 to 95% |
| CN(Cc1ccncn1)C(=O)c1c(-c2ccc(Cl)cc2)cc(C(F)(F)F)n1Cc1ccccc1 [SC-207, 1-Benzyl-3-(4-chlorophenyl)-N-methyl-N-(pyrimidin-4-yl-methyl)-5-(trifluoromethyl)-1H-pyrrole-2-carboxylic acid amide] | > 95% |
| COC1CCN(C(=O)c2c(-c3ccc(Cl)cc3)cc(C(F)(F)F)n2Cc2ccccc2)CC1 [SC-208, [1-Benzyl-3-(4-chlorophenyl)-5-(trifluoromethyl)-1H-pyrrol-2-yl]-(4-methoxy-piperidin-1-yl)-methanone] | > 95% |
| CC(=O)N1CCN(C(=O)c2c(-c3ccc(Cl)cc3)cc(C(F)(F)F)n2Cc2ccccc2)CC1 [SC-209, 1-[4-[1-Benzyl-3-(4-chlorophenyl)-5-(trifluoromethyl)-1H-pyrrole-2-carbonyl]-piperazin-1-yl]-ethanone] | > 95% |
| CN(Cc1cnccn1)C(=O)c1c(-c2ccc(Cl)cc2)cc(C(F)(F)F)n1Cc1ccccc1 [SC-210, 1-Benzyl-3-(4-chlorophenyl)-N-methyl-N-(pyrazin-2-yl-methyl)-5-(trifluoromethyl)-1H-pyrrole-2-carboxylic acid amide] | 75 to 95% |
| CN(Cc1nccn1C)C(=O)c1c(-c2ccc(Cl)cc2)cc(C(F)(F)F)n1Cc1ccccc1 [SC-212, 1-Benzyl-3-(4-chlorophenyl)-N-methyl-N-[(1-methyl-1H-imidazol-2-yl)-methyl]-5-(trifluoromethyl)-1H-pyrrole-2-carboxylic acid amide] | > 95% |
| CC(C)N(C)C(=O)c1c(-c2ccc(Cl)cc2)cc(C(F)(F)F)n1Cc1ccccc1 [SC-213, 1-Benzyl-3-(4-chlorophenyl)-N-isopropyl-N-methyl-5-(trifluoromethyl)-1H-pyrrole-2-carboxylic acid amide] | > 95% |
| CC(C)NC(=O)c1c(-c2ccc(Cl)cc2)cc(C(F)(F)F)n1Cc1ccccc1 [SC-214, 1-Benzyl-3-(4-chlorophenyl)-N-isopropyl-5-(trifluoromethyl)-1H-pyrrole-2-carboxylic acid amide] | 75 to 95% |
| Cc1cnc(CN(C)C(=O)c2c(-c3ccc(Cl)cc3)cc(C(F)(F)F)n2Cc2ccccc2)cn1 [SC-215, 1-Benzyl-3-(4-chlorophenyl)-N-methyl-N-[(5-methyl-pyrazin-2-yl)-methyl]-5-(trifluoromethyl)-1H-pyrrole-2-carboxylic acid amide] | > 95% |
| CN(Cc1cnc(N(C)C)nc1)C(=O)c1c(-c2ccc(Cl)cc2)cc(C(F)(F)F)n1Cc1ccccc1 [SC-216, 1-Benzyl-3-(4-chlorophenyl)-N-[(2-dimethylamino-pyrimidin-5-yl)-methyl]-N-methyl-5-(trifluoromethyl)-1H-pyrrole-2-carboxylic acid amide] | 75 to 95% |
| O=C(c1c(-c2ccc(Cl)cc2)cc(C(F)(F)F)n1Cc1ccccc1)N1CCn2ccnc2C1 [SC-217, [1-Benzyl-3-(4-chlorophenyl)-5-(trifluoromethyl)-1H-pyrrol-2-yl]-(5,6,7,8-tetrahydro-imidazo[1,2-a]pyrazin-7-yl)-methanone] | > 95% |
| Cc1c(-c2ccc(F)cc2)c(C(=O)N(C)CC(C)(C)CO)n(Cc2ccccc2)c1C(F)(F)F [SC-218, 1-Benzyl-3-(4-fluorophenyl)-N-(3-hydroxy-2,2-dimethyl-propyl)-N,4-dimethyl-5-(trifluoromethyl)-1H-pyrrole-2-carboxylic acid amide] | > 95% |
| Cc1c(-c2ccc(F)cc2)c(C(=O)N(C)CCS(C)(=O)=O)n(Cc2ccccc2)c1C(F)(F)F [SC-219, 1-Benzyl-3-(4-fluorophenyl)-N,4-dimethyl-N-(2-methylsulfonyl-ethyl)-5-(trifluoromethyl)-1H-pyrrole-2-carboxylic acid amide] | > 95% |
| Cc1c(-c2ccc(F)cc2)c(C(=O)N(C)C2CCOCC2)n(Cc2ccccc2)c1C(F)(F)F [SC-220, 1-Benzyl-3-(4-fluorophenyl)-N,4-dimethyl-N-tetrahydro-pyran-4-yl-5-(trifluoromethyl)-1H-pyrrole-2-carboxylic acid amide] | > 95% |
| Cc1c(-c2ccc(F)cc2)c(C(=O)N(C)C2CC2)n(Cc2ccccc2)c1C(F)(F)F [SC-221, 1-Benzyl-N-cyclopropyl-3-(4-fluorophenyl)-N,4-dimethyl-5-(trifluoromethyl)-1H-pyrrole-2-carboxylic acid amide] | > 95% |
| Cc1c(-c2ccc(F)cc2)c(C(=O)N(C)C(C)(C)CO)n(Cc2ccccc2)c1C(F)(F)F [SC-222, 1-Benzyl-3-(4-fluorophenyl)-N-(2-hydroxy-1,1-dimethyl-ethyl)-N,4-dimethyl-5-(trifluoromethyl)-1H-pyrrole-2-carboxylic acid amide] | > 95% |
| Cc1c(-c2ccc(F)cc2)c(C(=O)N2CC(O)C2)n(Cc2ccccc2)c1C(F)(F)F [SC-223, [1-Benzyl-3-(4-fluorophenyl)-4-methyl-5-(trifluoromethyl)-1H-pyrrol-2-yl]-(3-hydroxy-azetidin-1-yl)-methanone] | 75 to 95% |
| Cc1c(-c2ccc(F)cc2)c(C(=O)N(C)CC(C)(C)C)n(Cc2ccccc2)c1C(F)(F)F [SC-224, 1-Benzyl-N-(2,2-dimethyl-propyl)-3-(4-fluorophenyl)-N,4-dimethyl-5-(trifluoromethyl)-1H-pyrrole-2-carboxylic acid amide] | 75 to 95% |
| Cc1c(-c2ccc(F)cc2)c(C(=O)N2CCOC(C)(C)C2)n(Cc2ccccc2)c1C(F)(F)F [SC-225, [1-Benzyl-3-(4-fluorophenyl)-4-methyl-5-(trifluoromethyl)-1H-pyrrol-2-yl]-(2,2-dimethyl-morpholin-4-yl)-methanone] | > 95% |
| Cc1c(-c2ccc(F)cc2)c(C(=O)N(C)CC2CCOC2)n(Cc2ccccc2)c1C(F)(F)F (stereo not drawn) [SC-226, 1-Benzyl-3-(4-fluorophenyl)-N,4-dimethyl-N-(tetrahydro-furan-3-yl-methyl)-5-(trifluoromethyl)-1H-pyrrole-2-carboxylic acid amide] | > 95% |
| Cc1c(-c2ccc(C(F)(F)F)cc2)c(C(=O)N(C)CC(C)(C)CO)n(Cc2ccccc2)c1C(F)(F)F [SC-227, 1-Benzyl-N-(3-hydroxy-2,2-dimethyl-propyl)-N,4-dimethyl-5-(trifluoromethyl)-3-[4-(trifluoromethyl)-phenyl]-1H-pyrrole-2-carboxylic acid amide] | 75 to 95% |
| Cc1c(-c2ccc(C(F)(F)F)cc2)c(C(=O)N(C)CCS(C)(=O)=O)n(Cc2ccccc2)c1C(F)(F)F [SC-228, 1-Benzyl-N,4-dimethyl-N-(2-methylsulfonyl-ethyl)-5-(trifluoromethyl)-3-[4-(trifluoromethyl)-phenyl]-1H-pyrrole-2-carboxylic acid amide] | 75 to 95% |
| Cc1c(-c2ccc(C(F)(F)F)cc2)c(C(=O)N(C)C2CCOCC2)n(Cc2ccccc2)c1C(F)(F)F [SC-229, 1-Benzyl-N,4-dimethyl-N-tetrahydro-pyran-4-yl-5-(trifluoromethyl)-3-[4-(trifluoromethyl)-phenyl]-1H-pyrrole-2-carboxylic acid amide] | 75 to 95% |
| Cc1c(-c2ccc(C(F)(F)F)cc2)c(C(=O)N(C)C2CC2)n(Cc2ccccc2)c1C(F)(F)F [SC-230, 1-Benzyl-N-cyclopropyl-N,4-dimethyl-5-(trifluoromethyl)-3-[4-(trifluoromethyl)-phenyl]-1H-pyrrole-2-carboxylic acid amide] | 40 to 75% |
| Cc1c(-c2ccc(C(F)(F)F)cc2)c(C(=O)N(C)C(C)(C)CO)n(Cc2ccccc2)c1C(F)(F)F [SC-231, 1-Benzyl-N-(2-hydroxy-1,1-dimethyl-ethyl)-N,4-dimethyl-5-(trifluoromethyl)-3-[4-(trifluoromethyl)-phenyl]-1H-pyrrole-2-carboxylic acid amide] | > 95% |
| Cc1c(-c2ccc(C(F)(F)F)cc2)c(C(=O)N2CC(O)C2)n(Cc2ccccc2)c1C(F)(F)F [SC-232, [1-Benzyl-4-methyl-5-(trifluoromethyl)-3-[4-(trifluoromethyl)-phenyl]-1H-pyrrol-2-yl]-(3-hydroxy-azetidin-1-yl)-methanone] | 40 to 75% |
| Cc1c(-c2ccc(C(F)(F)F)cc2)c(C(=O)N(C)CC(C)(C)C)n(Cc2ccccc2)c1C(F)(F)F [SC-233, 1-Benzyl-N-(2,2-dimethyl-propyl)-N,4-dimethyl-5-(trifluoromethyl)-3-[4-(trifluoromethyl)-phenyl]-1H-pyrrole-2-carboxylic acid amide] | 30 to 40% |
| Cc1c(-c2ccc(C(F)(F)F)cc2)c(C(=O)N2CCOC(C)(C)C2)n(Cc2ccccc2)c1C(F)(F)F [SC-234, [1-Benzyl-4-methyl-5-(trifluoromethyl)-3-[4-(trifluoromethyl)-phenyl]-1H-pyrrol-2-yl]-(2,2-dimethyl-morpholin-4-yl)-methanone] | 75 to 95% |
| Cc1c(-c2ccc(OC(F)(F)F)cc2)c(C(=O)N(C)CC(C)(C)CO)n(Cc2ccccc2)c1C(F)(F)F [SC-235, 1-Benzyl-N-(3-hydroxy-2,2-dimethyl-propyl)-N,4-dimethyl-5-(trifluoromethyl)-3-[4-(trifluoromethyloxy)-phenyl]-1H-pyrrole-2-carboxylic acid amide] | 75 to 95% |
